The record followed here is US6878742B2, “Heterocyclic sulfonamide inhibitors of beta amyloid production” (Wyeth, priority 2000, dated 2005).

Where “and” joins values, the source holds several entries; their conditions need not be identical. Identical values can stand only once.

The test system of the first test is amyloid precursor protein (APP) proteolysis. The experiment in a line: Repressor Release Assay (RRA). Particulars: Conc 3 μg/mL; luciferase activity over diluent control. It counts as cell-based. The gist of the method:
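CHO-K1 cells grown in DMEM with 10% fetal bovine serum were transiently co-transfected with pRSVO-luc and APP-lacI constructs via Lipofectamine Plus, plated into opaque 96-well plates, and exposed to diluted compound in duplicate for 36-48 hours at 37° C. LucLite luciferase signal was read on a TopCount and expressed as fold increase in relative light units over Hepes/DMSO diluent control.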
With `CCC(C)C(NS(=O)(=O)c1ccc(Cl)s1)C(O)CC` (mixture of isomers) [Example 129], the “APPI Fold Increase” value was determined as 1.61 fold.

Still in this test, the particulars now being: Conc 10 μg/mL; luciferase activity over diluent control.
In the case of `CCC(C)C(NS(=O)(=O)c1ccc(Cl)s1)C(O)CC` (mixture of isomers) [Example 129], the “APPI Fold Increase” value is 7.43 fold and 4.59 fold.

With `O=S(=O)(N[C@H](CO)CC1CCCCC1)c1ccc(Br)s1` [Example 110], the “APPI Fold Increase” value is 1.71 fold.

The test is the same for the next values; noted with them: Conc 10 μg/mL; luciferase activity over diluent control; read-out: APPI Fold Increase.
Consider `CC[C@H](C)[C@@H](CO)NS(=O)(=O)c1sc(Cl)cc1Br` [Example 1, 3-Bromo-5-chloro-N-[(1S,2S)-1-(hydroxymethyl)-2-methylbutyl]thiophene-2-sulfonamide], for which the fold induction at 10 µg/mL was found to be 1.57.

`CC[C@H](C)[C@H](NS(=O)(=O)c1ccc(Cl)s1)C(O)c1ccc(Cl)cc1` (stereo partly drawn) [Example 131, 5-chloro-N-{(S,S)-1-[(4-chlorophenyl)(hydroxy)methyl]-2-methylbutyl}thiophene-2-sulfonamide]: the fold induction at 10 µg/mL was 3.64.

Regarding `CC[C@H](C)[C@H](NS(=O)(=O)c1ccc(Cl)s1)C(O)(c1ccc(Cl)cc1)c1ccc(Cl)cc1` [Example 167, N-{(S,S)-1-[bis(4-chlorophenyl)(hydroxy)methyl]-2-methylbutyl}-5-chlorothiophene-2-sulfonamide], the fold induction at 10 µg/mL was determined as 3.42.

As for `CCCCCCC(O)[C@@H](NS(=O)(=O)c1cccs1)[C@@H](C)CC` (stereo partly drawn) [Example 141, N-{(S)-2-hydroxy-1-[(S)-1-methylpropyl]octyl}thiophene-2-sulfonamide], the fold induction at 10 µg/mL came out at 4.2.

Turning to `CCC(O)[C@@H](NS(=O)(=O)c1cccs1)[C@@H](C)CC` (stereo partly drawn) [Example 148, N-{(S)-2-hydroxy-1-[(S)-1-methylpropyl]butyl}thiophene-2-sulfonamide], the fold induction at 10 µg/mL was determined as 1.52.

Consider `CC[C@H](C)[C@H](NS(=O)(=O)c1ccc(Cl)s1)C(O)c1ccc(F)cc1` (stereo partly drawn) [Example 130, 5-chloro-N-{(S,S)-1-[(4-fluorophenyl)(hydroxy)methyl]-2-methylbutyl}thiophene-2-sulfonamide], for which the fold induction at 10 µg/mL turned out to be 1.85.

Regarding `CCCCCC(O)(CCCCC)[C@@H](NS(=O)(=O)c1ccc(Cl)s1)[C@@H](C)CC` [Example 163, 5-chloro-N-{(S)-2-hydroxy-1-[(S)-1-methylpropyl]-2-pentylheptyl}thiophene-2-sulfonamide], the fold induction at 10 µg/mL amounted to 3.3.

In the case of `CC[C@H](C)[C@H](NS(=O)(=O)c1ccc(Cl)s1)C(C)(C)O` [Example 162, 5-Chloro-N-[(S,S)-1-(1-hydroxy-1-methylethyl)-2-methylbutyl]thiophene-2-sulfonamide], the fold induction at 10 µg/mL came out at 2.6.

For the compound `CC[C@H](C)[C@H](NS(=O)(=O)c1cccs1)C(O)CCC1OCCCO1` (stereo partly drawn) [Example 150, N-{(S)-4-(1,3-dioxan-2-yl)-2-hydroxy-1-[(S)-1-methylpropyl]butyl}thiophene-2-sulfonamide], the fold induction at 10 µg/mL was 1.6.

The test is the same for the next values; noted with them: Conc 20 μg/mL; luciferase activity over diluent control.
Take “5-bromo-N-{(S,S)-1-[(S)-1-hydroxyethyl]-2-methylbutyl}thiophene-2-sulfonamide [Example 190]”: the “APPI Fold Increase” value is 4.4 fold and 2.6 fold.

In the case of “5-chloro-N-{(S,S)-2-hydroxy-1-[(S)-1-methylpropyl]pent-4-enyl}thiophene-2-sulfonamide [Example 188]”, the “APPI Fold Increase” value was 6.3 fold and 3.6 fold.

As to `CCC[C@@H](O)[C@@H](NS(=O)(=O)c1ccc(Cl)s1)[C@@H](C)CC` [Example 187, 5-chloro-N-{(S,R)-2-hydroxy-1-[(S)-1-methylpropyl]pentyl}thiophene-2-sulfonamide], the “APPI Fold Increase” value is 5.7 fold and 3 fold.

With “5-chloro-N-{(S,R)-2-hydroxy-1-[(S)-1-methylpropyl]pent-4-enyl}thiophene-2-sulfonamide [Example 189]”, the “APPI Fold Increase” value is 8.1 fold and 7.9 fold and 7.2 fold and 4.4 fold.

Regarding `CCNC(C)(CO)CNS(=O)(=O)c1ccc(Cl)s1` (centres unmarked) [Example 80], the “APPI Fold Increase” value is reported as 1.8 fold.

Regarding `O=S(=O)(N[C@H](CO)CC1CCCCC1)c1ccc(Br)s1` [Example 110], the “APPI Fold Increase” value is 2.9 fold and 2.3 fold and 3.6 fold.

Still in this test, the particulars now being: Conc 20 μg/mL; luciferase activity over diluent control; read-out: APPI Fold Increase.
`O=S(=O)(N[C@H](CO)C1Cc2ccccc2C1)c1ccc(Cl)s1` [Example 228, 5-Chloro-N-[(1S)-1-(2,3-dihydro-1H-inden-2-yl)-2-hydroxyethyl]thiophene-2-sulfonamide]: the fold induction at 20 µg/mL came to 9.9.

As to `CC[C@H](C)[C@@H](CO)NS(=O)(=O)c1ccc(Cl)o1` [Example 204, 5-Chloro-N-[(1S,2S)-1-(hydroxymethyl)-2-methylbutyl]-2-furansulfonamide], the fold induction at 20 µg/mL amounted to 2.8.

For the compound `CCCC(CO)NS(=O)(=O)c1ccc(Br)s1` (racemic) [Example 112, 5-bromo-N-[1-(hydroxymethyl)butyl]thiophene-2-sulfonamide], the fold induction at 20 µg/mL came out at 1.6.

In the case of `CC(C)(C)OC(=O)N1CCC([C@@H](CO)NS(=O)(=O)c2ccc(Cl)s2)CC1` [Example 209, 4-[1-(5-Chloro-thiophene-2-sulfonylamino)-2-hydroxy-ethyl]-piperidine-1-carboxylic acid tert-butyl ester], the fold induction at 20 µg/mL turned out to be 2.1.

Regarding `C=CCNC1CCC([C@@H](CO)NS(=O)(=O)c2ccc(Cl)s2)CC1` (stereo partly drawn) [Example 215, 5-chloro-N-[(S)-2-hydroxy-1-(4-allylaminocyclohexyl)ethyl]thiophene-2-sulfonamide], the fold induction at 20 µg/mL amounted to 2.

Consider `CCCCCC[C@@H](CCC)[C@@H](CO)NS(=O)(=O)c1ccc(Cl)s1` [Example 37, 5-chloro-N-[(1S,2R)-1-(hydroxymethyl)-2-propyloctyl]thiophene-2-sulfonamide], for which the fold induction at 20 µg/mL was 4.8.

With `CCC[C@H](c1ccccc1)[C@@H](CO)NS(=O)(=O)c1ccc(Cl)s1` [Example 38, 5-chloro-N-[(1S,2R)-1-(hydroxymethyl)-2-phenylpentyl]thiophene-2-sulfonamide], the fold induction at 20 µg/mL came to 4.1.

Turning to `O=S(=O)(N[C@H](CO)Cc1ccc(OCc2ccccc2)cc1)c1ccc(Br)s1` [Example 116, N-{(S)-1-[4-(benzyloxy)benzyl]-2-hydroxyethyl}-5-bromothiophene-2-sulfonamide], the fold induction at 20 µg/mL was 2.2.

Regarding `C=C(C)CC(O)C1(NS(=O)(=O)c2ccc(Cl)s2)CCCCC1` (centres unmarked) [Example 198, 5-chloro-N-[1-(1-hydroxy-3-methylbut-3-enyl)cyclohexyl]thiophene-2-sulfonamide], the fold induction at 20 µg/mL was 4.4.

For `C[C@@H](c1ccco1)[C@@H](CO)NS(=O)(=O)c1ccc(Cl)s1` [Example 48, 5-chloro-N-[(1S,2R)-2-(2-furyl)-1-(hydroxymethyl)propyl]thiophene-2-sulfonamide], the fold induction at 20 µg/mL came out at 4.7.

As to `CC[C@@H](c1ccc(-c2ccccc2)cc1)[C@@H](CO)NS(=O)(=O)c1ccc(Cl)s1` [Example 54, N-[(1S,2S)-2-[1,1'-biphenyl]-4-yl-1-(hydroxymethyl)butyl]-5-chlorothiophene-2-sulfonamide], the fold induction at 20 µg/mL stood at 3.3.

`O=S(=O)(NC1(CO)CCCCC1)c1ccc(Cl)s1` [Example 177, 5-Chloro-N-[1-(hydroxymethyl)cyclohexyl]thiophene-2-sulfonamide]: the fold induction at 20 µg/mL was determined as 5.1.

Take `O=S(=O)(N[C@H](CO)C1CCC(NCc2cccnc2)CC1)c1ccc(Cl)s1` (stereo partly drawn) [Example 216, 5-chloro-N-[(S)-2-hydroxy-1-(4-(3-pyridyl)methylaminocyclohexyl)ethyl]thiophene-2-sulfonamide]: the fold induction at 20 µg/mL was determined as 1.5.

In the case of `CC(C)(CO)NS(=O)(=O)c1ccc(Cl)s1` [Example 92, 5-chloro-N-(2-hydroxy-1,1-dimethylethyl)thiophene-2-sulfonamide], the fold induction at 20 µg/mL was found to be 1.5.

As for `CCCCC[C@H](CC)[C@@H](CO)NS(=O)(=O)c1ccc(Cl)s1` [Example 41, 5-chloro-N-[(1S,2S)-2-ethyl-1-(hydroxymethyl)heptyl]thiophene-2-sulfonamide], the fold induction at 20 µg/mL came out at 4.7.

Regarding `CCC(CO)(CO)NS(=O)(=O)c1ccc(Cl)s1` [Example 93, N-[1,1-bis(hydroxymethyl)propyl]-5-chlorothiophene-2-sulfonamide], the fold induction at 20 µg/mL came to 2.

For `CCC[C@H](CC)[C@@H](CO)NS(=O)(=O)c1ccc(Cl)s1` [Example 34, 5-chloro-N-[(1S,2S)-2-ethyl-1-(hydroxymethyl)pentyl]thiophene-2-sulfonamide], the fold induction at 20 µg/mL stood at 5.9.

Regarding `CC(C)C[C@@H](c1ccco1)[C@@H](CO)NS(=O)(=O)c1ccc(Br)s1` [Example 72, 5-bromo-N-[(1S,2R)-2-(2-furyl)-1-(hydroxymethyl)-4-methylpentyl]thiophene-2-sulfonamide], the fold induction at 20 µg/mL came to 6.4.

For `CCC[C@H](CC(C)C)[C@@H](CO)NS(=O)(=O)c1ccc(Br)s1` [Example 61, 5-bromo-N-[(1S,2R)-1-(hydroxymethyl)-4-methyl-2-propylpentyl]thiophene-2-sulfonamide], the fold induction at 20 µg/mL is 5.7.

On to `C=CCOC1CCC([C@@H](CO)NS(=O)(=O)c2ccc(Cl)s2)CC1` (stereo partly drawn) [Example 201, N-{(S)-1-[4-(allyloxy)cyclohexyl]-2-hydroxyethyl}-5-chlorothiophene-2-sulfonamide], for which the fold induction at 20 µg/mL was 2.2.

Take `CC(C)[C@@](C)(CO)NS(=O)(=O)c1ccc(Br)s1` [Example 25, 5-Bromo-N-[(1S)-1-(hydroxymethyl)-1,2-dimethylpropyl]thiophene-2-sulfonamide]: the fold induction at 20 µg/mL stood at 7.5.

Staying with this test, now noted: read-out: APPI Fold Increase.
Regarding `CCCC(C)C(CO)NS(=O)(=O)c1ccc(Cl)s1` (centres unmarked) [Example 20, 5-chloro-N-[1-(hydroxymethyl)-2-methylpentyl]thiophene-2-sulfonamide], the fold induction at 20 µg/mL is 5.

In the case of `O=S(=O)(NC(CO)C1CC=CCC1)c1ccc(Cl)s1` (centres unmarked) [Example 23, 5-chloro-N-(1-cyclohex-3-en-1-yl-2-hydroxyethyl)thiophene-2-sulfonamide], the fold induction at 20 µg/mL was 6.4.
